Reference: patent US20240254109A1, “SALT CONTAINING PIPERAZINE POLYCYCLIC DERIVATIVE, CRYSTAL FORM THEREOF, PREPARATION METHOD THEREFOR, AND USE THEREOF” (Shanghai Hansoh Biomedical Co., Ltd., priority 2021, published 2024)
Values belong to the compound of their own block, whether it stands above or below them.

How the values were obtained:
[1] = Pharmacokinetic assay in Balb/c mice (plasma and brain tissue); format: in vivo; conditions: p.o. 5 mg/kg
Protocol: (III). Pharmacokinetic Assay in Balb/c Mice
Balb/c mice were used as test animals. The pharmacokinetic behavior in mouse body (plasma and brain tissue) of the compounds of Examples of the present invention was studied at an oral administration dose of 5 mg/kg.
Male Balb/c mice (12 mice per group), purchased from Shanghai Jiesijie Laboratory Animal Co., LTD, with Certificate No.: SCXK (Shanghai) 2013-0006 N0.311620400001794.
The test compound was dissolved in 0.5% CMC-Na (1% Tween80) by sonication to formulate a clear solution or homogeneous suspension.
After an overnight fast, male Balb/c mice (12 mice per group) were administered p.o. with the test compound at an administration dose of 5 mg/kg and an administration volume of 10 mL/kg.
0.2 mL of blood was taken from the heart of the mouse before administration and at 1, 2, 4, 8 and 24 hours after administration, and the mice were sacrificed with CO2. The samples were stored in EDTA-K2 tubes, and centrifuged for 6 minutes at 4° C., 6000 rpm to separate the plasma. The plasma samples were stored at −80° C. Whole brain tissue was taken out, weighed, placed in a 2 mL centrifuge tube, and stored at −80° C.
1) 160 μL of acetonitrile was added to 40 μL of the plasma sample for precipitation, and then the mixture was centrifuged for 5 to 20 minutes at 3500×g.
2) 90 μL of acetonitrile containing internal standard (100 ng/mL) was added to 30 μL of the plasma and brain homogenate sample for precipitation, and then the mixture was centrifuged for 8 minutes at 13000 rpm.
3) 70 μL of water was added to 70 μL of the treated supernatant and mixed by vortex for 10 minutes. 20 μL of the supernatant was taken to analyze the concentration of the test compound by LC/MS/MS. LC/MS/MS analytical instrument: AB Sciex API 4000 Qtrap.
• Liquid chromatography condition: Shimadzu LC-20AD pump • Chromatographic column: Agilent ZORBAX XDB-C18 (50×2.1 mm, […]); Mobile phase: Eluent A was 0.1% formic acid in water, and Eluent B was acetonitrile • Flow rate: 0.4 mL/min • Elution time: 0-4.0 minutes, the eluent is as follows:
The main parameters of pharmacokinetics were calculated by WinNonlin 6.1.

[2] = Solid stability experiment of crystal form of salt; format: physicochemical; conditions: for Maximum single impurity increase % / Total impurity increase %: listed as Crystal form B of p-toluenesulfonate
Protocol: 4. Solid Stability Experiment
The physicochemical stability of crystal form of salt of compound N-(trans-3-(2-(4-(2,3-dichlorophenyl)piperazin-1-yl)ethyl)cyclobutyl)oxazole-2-carboxamide under the conditions of light 50001×, high temperature 60° C., high humidity 92.5% RH and high temperature and high humidity 50° C. 75% RH was investigated, which provided a basis for crystal form screening and compound crystal form storage.
About 1 mg of different crystal forms of salt were taken and placed under the conditions of light 50001×, high temperature 60° C., high humidity 92.5% RH, high temperature and high humidity 50° C. 75% RH for 5 days and 10 days. The salt content was determined by HPLC and external standard method, and the change of relevant substances was calculated by chromatographic peak area normalization method.

[3] = Stability study of salt (5 days and 10 days, HPLC related substances); format: physicochemical
Protocol: 2.1.3 Stability Study of Salt
Hydrochloride and p-toluenesulfonate of N-(trans-3-(2-(4-(2,3-dichlorophenyl)piperazin-1-yl)ethyl)cyclobutyl)oxazole-2-carboxamide were weighed about 1 mg, respectively, and then placed under light (5000 lux), high temperature (60° C.), high humidity (92.50 RH), high temperature and high humidity (50° C. and 75% RH) for 5 days and 10 days, then a diluent DMSO was added to prepare a solution with salt concentration of about 1 mg/mL.
The chromatographic peak area normalization method was used to calculate the changes of related substances.

[4] = GWGS-5 d (high temperature and high humidity)
[5] = GWGS-10 d (high temperature and high humidity)

SMILES: O=C(N[C@H]1C[C@H](CCN2CCN(c3cccc(Cl)c3Cl)CC2)C1)c1ncco1 [Example 12A, N-(Trans-3-(2-(4-(2,3-dichlorophenyl)piperazin-1-yl)ethyl)cyclobutyl)oxazole-2-carboxamide]
Peak time tmax ([1]; Brain): 1 h
Peak time tmax ([1]; Plasma): 0.5 h

Peak time tmax ([1]; Brain): 1 h
Peak time tmax ([1]; Plasma): 0.5 h
SMILES: O=C(N[C@H]1C[C@@H](CCN2CCN(c3cccc(Cl)c3Cl)CC2)C1)c1ncco1 [Example 12B, N-(Cis-3-(2-(4-(2,3-dichlorophenyl)piperazin-1-yl)ethyl)cyclobutyl)oxazole-2-carboxamide]

Peak time tmax ([1]; Brain): 1 h
Peak time tmax ([1]; Plasma): 0.5 h
SMILES: O=C(N[C@H]1C[C@H](CCN2CCN(c3cccc(Cl)c3Cl)CC2)C1)c1cccc2ncccc12 [Example 19A, N-(trans-3-(2-(4-(2,3-dichlorophenyl)piperazin-1-yl)ethyl)cyclobutyl)quinoline-5-carboxamide]

Peak time tmax ([1]; Brain): 1 h
Peak time tmax ([1]; Plasma): 0.5 h
SMILES: CCN(C)C(=O)NC1CC(CCN2CCN(c3cccc4sccc34)CC2)C1 (stereo not shown) [Example 24, 3-(3-(2-(4-(Benzo[b]thiophen-4-yl)piperazin-1-yl)ethyl)cyclobutyl)-1-ethyl-1-methylurea]

Peak time tmax ([1]; Brain): 1 h
Peak time tmax ([1]; Plasma): 1 h
SMILES: O=C(NC1CC(CCN2CCCN(c3cccc(Cl)c3Cl)CC2)C1)c1ccco1 (stereo not shown) [Example 25, N-(3-(2-(4-(2,3-Dichlorophenyl)-1,4-diazepan-1-yl)ethyl)cyclobutyl)furan-2-carboxamide]

SMILES: O=C(N[C@H]1C[C@H](CCN2CCN(c3cccc(Cl)c3Cl)CC2)C1)c1ncco1 [crystal form B of p-toluenesulfonate, N-(trans-3-(2-(4-(2,3-dichlorophenyl)piperazin-1-yl)ethyl)cyclobutyl)oxazole-2-carboxamide]
Maximum single impurity increase % ([2]; High humidity, 5 Days): <0.02%
Total impurity increase % ([2]; High humidity, 5 Days): <0.02%
Total impurity increase % ([2]; High temperature, 10 Days): <0.02%
Maximum single impurity increase % ([2]; Light, 5 Days): 0.13%
Total impurity increase % ([2]; Light, 5 Days): 0.03%
Maximum single impurity increase % ([2]; Light, 10 Days): 0.13%
Total impurity increase % ([2]; Light, 10 Days): 0.19%
single impurity ([2]; light conditions): increases significantly
crystal form stability ([2]; other conditions than light): stable

SMILES: O=C(N[C@H]1C[C@H](CCN2CCN(c3cccc(Cl)c3Cl)CC2)C1)c1ncco1 [p-toluenesulfonate, N-(trans-3-(2-(4-(2,3-dichlorophenyl)piperazin-1-yl)ethyl)cyclobutyl)oxazole-2-carboxamide]
RRT 0.190 Area % ([3]; 0 d): 0.317%
RRT 0.210 Area % ([3]; 0 d): 0.073%
RRT 1.000 Area % ([3]; 0 d): 99.217%
RRT 1.050 Area % ([3]; 0 d): 0.149%
RRT 1.190 Area % ([3]; 0 d): 0.178%
RRT 1.540 Area % ([3]; 0 d): 0.067%
total Area % (related substances) ([3]; 0 d): 0.783%
RRT 0.190 Area % ([3]; GS-5 d (high humidity)): 0.213%
RRT 0.210 Area % ([3]; GS-5 d (high humidity)): 0.074%
RRT 1.000 Area % ([3]; GS-5 d (high humidity)): 99.310%
RRT 1.050 Area % ([3]; GS-5 d (high humidity)): 0.145%
RRT 1.190 Area % ([3]; GS-5 d (high humidity)): 0.177%
RRT 1.540 Area % ([3]; GS-5 d (high humidity)): 0.080%
total Area % (related substances) ([3]; GS-5 d (high humidity)): 0.690%
RRT 0.190 Area % ([3]; GS-10 d (high humidity)): 0.233%
RRT 0.210 Area % ([3]; GS-10 d (high humidity)): 0.075%
RRT 1.000 Area % ([3]; GS-10 d (high humidity)): 99.298%
RRT 1.050 Area % ([3]; GS-10 d (high humidity)): 0.143%
RRT 1.190 Area % ([3]; GS-10 d (high humidity)): 0.180%
RRT 1.540 Area % ([3]; GS-10 d (high humidity)): 0.071%
total Area % (related substances) ([3]; GS-10 d (high humidity)): 0.702%
RRT 0.190 Area % ([3]; GW-5 d (high temperature)): 0.163%
RRT 0.210 Area % ([3]; GW-5 d (high temperature)): 0.072%
RRT 1.000 Area % ([3]; GW-5 d (high temperature)): 99.400%
RRT 1.050 Area % ([3]; GW-5 d (high temperature)): 0.121%
RRT 1.190 Area % ([3]; GW-5 d (high temperature)): 0.175%
RRT 1.540 Area % ([3]; GW-5 d (high temperature)): 0.068%
total Area % (related substances) ([3]; GW-5 d (high temperature)): 0.600%
RRT 0.190 Area % ([3]; GW-10 d (high temperature)): 0.224%
RRT 0.210 Area % ([3]; GW-10 d (high temperature)): 0.075%
RRT 1.000 Area % ([3]; GW-10 d (high temperature)): 99.319%
RRT 1.050 Area % ([3]; GW-10 d (high temperature)): 0.131%
RRT 1.190 Area % ([3]; GW-10 d (high temperature)): 0.178%
RRT 1.540 Area % ([3]; GW-10 d (high temperature)): 0.073%
total Area % (related substances) ([3]; GW-10 d (high temperature)): 0.681%
RRT 0.190 Area % [3, 4]: 0.348%
RRT 0.210 Area % [3, 4]: 0.072%
RRT 1.000 Area % [3, 4]: 99.204%
RRT 1.050 Area % [3, 4]: 0.137%
RRT 1.190 Area % [3, 4]: 0.170%
RRT 1.540 Area % [3, 4]: 0.070%
total Area % (related substances) [3, 4]: 0.796%
RRT 0.190 Area % [3, 5]: 0.319%
RRT 0.210 Area % [3, 5]: 0.074%
RRT 1.000 Area % [3, 5]: 99.246%
RRT 1.050 Area % [3, 5]: 0.128%
RRT 1.190 Area % [3, 5]: 0.168%
RRT 1.540 Area % [3, 5]: 0.065%
total Area % (related substances) [3, 5]: 0.754%
RRT 0.190 Area % ([3]; GZ-5 d (light)): 0.266%
RRT 0.210 Area % ([3]; GZ-5 d (light)): 0.072%
RRT 0.890 Area % ([3]; GZ-5 d (light)): 0.130%
RRT 1.000 Area % ([3]; GZ-5 d (light)): 99.184%
RRT 1.050 Area % ([3]; GZ-5 d (light)): 0.101%
RRT 1.190 Area % ([3]; GZ-5 d (light)): 0.171%
RRT 1.540 Area % ([3]; GZ-5 d (light)): 0.075%
total Area % (related substances) ([3]; GZ-5 d (light)): 0.816%
RRT 0.190 Area % ([3]; GZ-10 d (light)): 0.324%
RRT 0.210 Area % ([3]; GZ-10 d (light)): 0.073%
RRT 0.890 Area % ([3]; GZ-10 d (light)): 0.232%
RRT 1.000 Area % ([3]; GZ-10 d (light)): 99.028%
RRT 1.050 Area % ([3]; GZ-10 d (light)): 0.115%
RRT 1.190 Area % ([3]; GZ-10 d (light)): 0.162%
RRT 1.540 Area % ([3]; GZ-10 d (light)): 0.066%
total Area % (related substances) ([3]; GZ-10 d (light)): 0.972%
changes in impurities ([3]; high temperature, high humidity, and high temperature and high humidity, 5 and 10 days): no significant changes in impurities
